Laboratory results as given in patent US7264932B2, “Nuclease inhibitor cocktail” (Applera Corporation, priority 1999, dated 2007).

Key:
[1] = test system: RNase A; assay: Salt-based inhibition of RNase activity (RNaseAlert); type: biochemical, bovine; details: increasing salt concentrations, fluorescence 490/520 nm
[2] = test system: diluted liver lysate; details: 5 mm edta, liver lysate 1:5, e. coli total rna, room temperature 5.5 min
Method: Tissues (5 mg) were dounced in 50 ul of non-denaturing, neutral ph buffer (24 mm hepes, ph 7.2, 50 mm nac1, 1 mm mgc12). Diluted tissue lysates (pancreas 1:20,000; liver 1:5) or 5 pg/ul bovine rnase a were pre-incubated with 0.2u/ul rip, 50 mm citrate or 5 mm edta for 30 sec. A total of 100 pg/ul e. Coli total rna was then added to the mixture and incubated at room temperature for an additional 4 min (FIG. 1., Lanes 1-5) or 5.5 min (lanes 6&7). […] The sample (1 ul) was analyzed by bioanalyzer 2100 after separation on an ma labchip.

[3] = test system: RNase A, 1, and T1; assay: Anti-RNase antibodies / Specific Anti-RNase Cocktail with added non-antibody inhibitor; type: biochemical
Method: (§1) The activity of an anti-nuclease cocktail is readily determined using radiolabeled RNA or DNA to detect the inhibition of nuclease by anti-nuclease antibodies in the anti-nuclease cocktail. […] Assay buffer, nuclease and an anti-nuclease cocktail are then added to 0.5 ml microfuge tubes. A mixture comprising assay buffer, RNA or DNA and radiolabeled RNA or DNA is added to the microfuge tubes, and the tubes are vortexed and microfuged. After incubation of the tubes at 37° C. for 30 minutes, a portion of the tube contents is removed and placed into gel loading buffer. After mixing, the combination is loaded onto a gel, typically a 8M urea/5% acrylamide gel, which is exposed to film.
(§2) Radiolabeled RNA was used to detect the inhibition of RNase A, RNase T1, and RNase 1 by specific antibodies.
(§3) The “MIX” was prepared by combining 10× Assay Buffer (0.9 μl/rxn), 5 mg/ml yeast RNA (0.4 μl/rxn), ^32P-labeled β actin RNA (1 μl/rxn), and nuclease-free H2O (6.7 μl/rxn), for a total of 9 μl/rxn.
(§4) 1× Assay Buffer was added first. Then Specific RNase Cocktail, Specific Anti-RNase Cocktail and MIX were added. The tubes are vortexed and microfuged, then incubated at 37° C. for 30 min (Table 9).
(§5) At the end of the incubation time, 10 μl of solution was removed from the tube and placed into 10 μl Gel Loading Buffer II. The combination was mixed thoroughly and loaded onto a 8M urea/5% acrylamide gel. The gel was exposed to film for 30 min. at −80° C. with an intensifying screen.

[4] = target: T1, RNase A (Bos taurus, UniProt P61823); assay: Radiolabeled RNA probe degradation gel assay, RNase A; type: biochemical
T1 sequence (P61823 27-150): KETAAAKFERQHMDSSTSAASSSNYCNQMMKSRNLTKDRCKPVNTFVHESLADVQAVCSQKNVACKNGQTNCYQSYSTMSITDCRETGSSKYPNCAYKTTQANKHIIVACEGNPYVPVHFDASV
Method: as §1, §2, §3, §4, §5

[5] = test system: diluted pancreas lysate; assay: Intactness of total RNA (RNA LabChip), diluted pancreas lysate; type: biochemical, mouse; details: 1% SDS, pancreatic lysate 1:20,000, mouse liver total RNA, 25 C 4 min
Method: A total of 100 pg/ul e. […].
Pancreatic lysate (0.1 mg/ml) was diluted 1:20,000 in 24 mM Hepes, pH 7.2, 50 mM NaCl, 1 mM MgCl2 and pre-incubated with either 1% SDS or 6.25 mM OVA for 30 s prior to the addition of 2 ug mouse liver total RNA. Reactions were incubated at 25 C for an additional 4 min, quenched, and analyzed on an RNA LabChip.
Mouse pancreatic tissue (5 mg) was disrupted in 50 ul of 24 mM Hepes, pH 7.2, 50 mM NaCl, 1 mM MgCl2. The diluted lysate (1:20,000) was pre-incubated with 50 uM Benzopurpurin B (BpB) for 30 sec and then added to 100 ng/ul mouse liver total RNA (Ambion) and incubated at 23 C for an additional 4 min. Samples were quenched in a guanidinium lysis buffer, and the RNA purified via MEGAclear™ MAG-96 and eluted with 20 ul nuclease-free water. […] These experiments were conducted in the same fashion except that 100 uM BpB was employed. The sample (1 ul) was analyzed by 2100 BioAnalyzer software (Agilent) after separation on an RNA LabChip.
Mouse pancreatic tissue (5 mg) was dounced in 50 ul of 24 mM Hepes, pH 7.2, 50 mM NaCl, 1 mM MgCl2. A diluted lysate (1:20,000) was pre-incubated with 100 uM BpB or the analog Benzopurpurin 4B (Bp4B) for 30 sec and then added to 100 ng/ul mouse liver total RNA (Ambion) and incubated at 23 C for an additional 4 min. Samples were quenched in a guanidinium lysis buffer, and the RNA purified via MEGAclear™ MAG-96 and eluted with 20 ul nuclease-free water. The sample (1 ul) was analyzed by 2100 BioAnalyzer software (Agilent) after separation on an RNA LabChip.
Pancreatic tissue (5 mg) was dounced in 50 ul of 24 mM Hepes, pH 7.2, 50 mM NaCl, 1 mM MgCl2. The lysate was diluted (1:20,000) and then pre-incubated with 200 uM of 467929. […] All samples were pre-incubated for 30 sec before being added to 100 ng/ul mouse liver total RNA (Ambion) and incubated at 23C for an additional 4 min. The RNA was then immediately purified via MEGAclear™ MAG-96 and eluted with 20 ul nuclease-free water. The recovered RNA (1 ul) was analyzed by 2100 BioAnalyzer software after separation on an RNA LabChip.

[6] = target: T2, RNase T1 (Aspergillus oryzae, UniProt P00651); assay: Radiolabeled RNA probe degradation gel assay, RNase T1; type: biochemical; details: 2.5 to 5 ug of heparin
T2 sequence (P00651 27-130): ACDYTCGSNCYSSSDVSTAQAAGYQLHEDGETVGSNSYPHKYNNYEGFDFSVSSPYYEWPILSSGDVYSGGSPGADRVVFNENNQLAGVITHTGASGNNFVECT
Method: The activity of anti-nuclease antibodies is readily determined using radiolabeled RNA or DNA to detect the inhibition of RNase or DNase by the anti-nuclease antibodies. In general, the nuclease and anti-nuclease antibody are separately diluted, typically in 1× assay buffer. Assay buffer, nuclease and anti-nuclease antibody are then added to 0.5 ml microfuge tubes. For assaying anti-RNase activity, a mixture comprising assay buffer, RNA and radiolabeled RNA is added to the microfuge tubes. The “MIX” of assay buffer, RNA and radiolabeled RNA is generally prepared by combining 10× Assay Buffer (0.9 μl/rxn), 5 mg/ml yeast RNA (0.4 μl/rxn), ^32-β actin RNA (1 μl/rxn), and nuclease-free H2O (6.7 μl/rxn) for a total of 9 μl/rxn. The tubes are vortexed and microfuged, then incubated at 37° C. for 30 minutes. After incubation, a portion of the tube contents is removed and placed into gel loading buffer. Then the tube contents and the gel loading buffer are mixed, and the combination is loaded onto a gel, typically a 8M urea/5% acrylamide gel, which is exposed to film. […]
The activity of an anti-nuclease cocktail is readily determined using radiolabeled RNA or DNA to detect the inhibition of nuclease by anti-nuclease antibodies in the anti-nuclease cocktail. […]

[7] = test system: total RNase activity in kidney lysate; assay: RNaseAlert fluorescent assay, kidney lysate; type: biochemical, mouse; details: heated + 2.9 mM Ap5A
Method: (§6) Flash-frozen mouse tissues (5 mg) were dounced in 50 ul of 24 mM Hepes, pH 7.2, 50 mM NaCl, 1 mM MgCl2. RNase activity was measured using Ambion's fluorescent RNaseAlert™ assay ([…] substrate, 10 ug/ml ultrapure BSA) via BMG POLARstar Optima Fluorometer according to the manufacturer's protocol. In addition to measuring total RNase activity, lysates were treated with Ap5A, heat (90 C for 10 min), or 0.5 U/ul RIP. Tissue lysate dilutions: pancreas 1:16,200; liver 1:17; thymus 1:17; kidney 1:17; spleen 1:810; lung 1:810. The data were normalized to maximum RNase activity observed in tissue lysate with kidney being the tissue with the lowest RNase activity and assigned the arbitrary unit of 1. […] However, RIP is specific to RNase A superfamily enzymes, where Ap5A, as a RNA analogue, is expected to be a more general RNase inhibitor.

[8] = test system: total RNase activity in pancreas lysate; assay: RNaseAlert fluorescent assay, pancreas lysate; type: biochemical, mouse
Method: as §6
Pancreatic tissue (5 mg) was dounced in 50ul of 24 mM Hepes, pH 7.2, 50 mM NaCl, 1 mM MgCl2. Diluted pancreas lysate (1:12,000) was subjected to a 1/10 volume of negatively charged SP resin. RNase activity of the clarified lysate was measured using. Ambion's fluorescent RNaseAlert™ assay (40 nM substrate, 10 ug/ml ultrapure BSA) via BMG POLARstar Optima, according to the manufacturer's instructions. Resin treatment removed >95% of total RNase activity in diluted pancreas lysate. […] In this case, inactivation is accomplished by binding of the positively-charged RNase to the negatively-charged sulfopropyl resin. Thus the RNases can be physically removed from the tissue lysate and separated from the RNA that they might otherwise degrade over time.

[9] = test system: total RNase activity in liver lysate; assay: RNaseAlert fluorescent assay, liver lysate; type: biochemical, mouse; details: heated + 2.9 mM Ap5A
Method: as §6

[10] = test system: total RNase activity in thymus lysate; assay: RNaseAlert fluorescent assay, thymus lysate; type: biochemical, mouse; details: heated + 2.9 mM Ap5A
Method: as §6

[Cl-].[Na+] [NaCl]
effect on RNase A activity [1]: inhibits

O=C(O)CN(CCN(CC(=O)O)CC(=O)O)CC(=O)O [EDTA, ethylenediamine tetraacetic acid]
protection of total RNA from degradation [2]: significant protection

CCCCCCCCCCCCOS(=O)(=O)[O-].[Na+] [SDS, sodium dodecyl sulfate]
effect on anti-RNase A, 1, and T1 action of Specific Anti-RNase Cocktail ([3]; 0.1–0.5% SDS added to cocktail): Addition of 0.1–0.5% SDS to Specific Anti-RNase Cocktail strengthened anti-
concentration that inhibited activity of RNase A ([4]; 50 pg of RNase A): 0.25% SDS inhibited activity of 50 pg of RNase A.
protection of RNA from degradation [5]: help remedy RNA degradation

NC(N)=O [urea]
effect on action of Specific Anti-RNase Cocktail ([3]; 6 M urea added to cocktail): Anti-Rnase Cocktail strengthened the action of Specific Anti-RNase Cocktail.
concentration that inhibited RNase A activity [4]: 6 M urea inhibited RNase A activity. This concentration of urea added to the Specific

heparin
effect on activity of RNases A ([4]; 2.5 to 5 ug of heparin): *This amount of heparin did not effect the activities of RNases A and Rnases T1.
effect on activity of Rnases T1 [6]: *This amount of heparin did not effect the activities of RNases A and Rnases T1.

O=C([O-])CC(O)(CC(=O)[O-])C(=O)[O-].[Na+].[Na+].[Na+] [NaCitrate]
effect on RNase A activity [1]: Inhibits

Nc1ncnc2c1ncn2[C@@H]1O[C@H](COP(=O)(O)OP(=O)(O)OP(=O)(O)OP(=O)(O)OP(=O)(O)OC[C@H]2O[C@@H](n3cnc4c(N)ncnc43)[C@H](O)[C@@H]2O)[C@@H](O)[C@H]1O [Ap5A]
% Inhibition [7]: 98.9%
Slope/sec [7]: 0.02
% Inhibition ([8]; Pancreas + 232 uM Ap5A): 44.3%
Slope/sec ([8]; Pancreas + 232 uM Ap5A): 13.58
% Inhibition ([8]; Pancreas + 1.3 mM Ap5A): 87.5%
Slope/sec ([8]; Pancreas + 1.3 mM Ap5A): 3.05
% Inhibition ([8]; Pancreas + 2.9 mM Ap5A): 97.7%
Slope/sec ([8]; Pancreas + 2.9 mM Ap5A): 0.55
% Inhibition [9]: 97.2%
Slope/sec [9]: 0.46
% Inhibition [10]: 88.5%
Slope/sec [10]: 0.33
